Target: T1, human IL-17AA (Homo sapiens, UniProt Q16552)
T1 construct: host or cells: HEK (human embryonic kidney) cells
T1 sequence (Q16552 24-155): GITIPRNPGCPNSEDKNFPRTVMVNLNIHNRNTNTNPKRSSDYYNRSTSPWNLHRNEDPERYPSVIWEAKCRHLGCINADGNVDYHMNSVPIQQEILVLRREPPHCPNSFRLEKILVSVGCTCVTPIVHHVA
Experiment: IL-8 release assay in human epithelial keratinocytes adult (HEKa)
Format: cell-based
Details: HEKa cells, 3 ng/mL HEK-human IL-17AA + 10 ng/mL human TNFalpha; read-out: Rel EC50 IL-8 release assay
In short: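 Adult human epidermal keratinocytes stimulated 68-72 h at 37 °C with 3 ng/mL HEK-derived human IL-17AA plus 10 ng/mL TNF-alpha (final) in the presence of compound; TNF-alpha alone defines 100% inhibition. Secreted IL-8 measured by HTRF as percent of controls; relative IC50/Emax from four-parameter fit (r^2>0.9), cytotoxicity by PrestoBlue.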

Compared with CC[C@H](C)[C@H](NC(=O)c1ccnn1CC)C(=O)Nc1ccc(-c2c(C)n[nH]c2C)cc1 [Example 109, N-[(1S,25)-1-[[4-(3,5-dimethyl-1H-pyrazol-4-yl)phenyl]carbamoyl]-2-methyl-butyl]-2-ethyl-pyrazole-3-carboxamide], CC[C@@H](C)[C@H](NC(=O)c1ccnn1C)C(=O)Nc1ccc(-c2c(C)n[nH]c2C)cc1 [Example 113] is higher in EC50: 100 to 1000 nM for the first, greater than 1000 nM for the second.

CC[C@H](C)[C@H](NC(=O)c1ccnn1C(C)C)C(=O)Nc1ccc(-c2c(C)n[nH]c2C)cc1 [Example 110] and CCC(CC)[C@H](NC(=O)c1ccnn1C(C)C)C(=O)Nc1ccc(-c2c(C)n[nH]c2C)cc1 [Example 121] fall in the same range of EC50: 100 to 1000 nM for the first, 100 to 1000 nM for the second.

First: Cc1n[nH]c(C)c1-c1ccc(NC(=O)[C@H](NC(=O)c2ccnn2C(C)C)C2CCC3(CC2)CC3)cc1 [Example 111, N-[(1R)-2-[4-(3,5-dimethyl-1H-pyrazol-4-yl)anilino]-2-oxo-1-spiro[2.5]octan-6-yl-ethyl]-2-isopropyl-pyrazole-3-carboxamide]
Second: Cc1n[nH]c(C)c1-c1ccc(NC(=O)[C@@H](NC(=O)c2ccnn2C(C)C)C2CCC3(CC2)CC3)cc1 [Example 112, N-[(1S)-2-[4-(3,5-dimethyl-1H-pyrazol-4-yl)anilino]-2-oxo-1-spiro[2.5]octan-6-yl-ethyl]-2-isopropyl-pyrazole-3-carboxamide]
The EC50 of the first is higher: greater than 1000 nM for the first, less than 100 nM for the second. The second is the more potent here.

Cc1n[nH]c(C)c1-c1ccc(NC(=O)[C@@H](NC(=O)c2ccnn2C2CCC2)C(C2CC2)C2CC2)cc1 [Example 114, 2-cyclobutyl-N-[(1S)-1-(dicyclopropylmethyl)-2-[4-(3,5-dimethyl-1H-pyrazol-4-yl)anilino]-2-oxo-ethyl]pyrazole-3-carboxamide] and Cc1n[nH]c(C)c1-c1ccc(NC(=O)[C@@H](NC(=O)c2ccnn2C2CC2)C(C2CC2)C2CC2)cc1 [Example 116, 2-cyclopropyl-N-[(1S)-1-(dicyclopropylmethyl)-2-[4-(3,5-dimethyl-1H-pyrazol-4-yl)anilino]-2-oxo-ethyl]pyrazole-3-carboxamide] cannot be ordered by EC50: less than 100 nM for the first, less than 100 nM for the second.

Cc1n[nH]c(C)c1-c1ccc(NC(=O)[C@@H](NC(=O)c2ccnn2CC(F)F)C(C2CC2)C2CC2)cc1 [Example 115, N-[(1S)-1-(dicyclopropylmethyl)-2-[4-(3,5-dimethyl-1H-pyrazol-4-yl)anilino]-2-oxo-ethyl]-2-(2,2-difluoroethyl)pyrazole-3-carboxamide] and Cc1n[nH]c(C)c1-c1ccc(NC(=O)[C@@H](NC(=O)c2ccnn2CC(C)C)C(C2CC2)C2CC2)cc1 [Example 132, N-[(1S)-1-(dicyclopropylmethyl)-2-[4-(3,5-dimethyl-1H-pyrazol-4-yl)anilino]-2-oxo-ethyl]-2-isobutyl-pyrazole-3-carboxamide] cannot be ordered by EC50: less than 100 nM for the first, less than 100 nM for the second.

Cc1n[nH]c(C)c1-c1ccc(NC(=O)[C@@H](NC(=O)c2ccnn2C)C(C2CC2)C2CC2)cc1 [Example 117, N-[(1S)-1-(dicyclopropylmethyl)-2-[4-(3,5-dimethyl-1H-pyrazol-4-yl)anilino]-2-oxo-ethyl]-2-methyl-pyrazole-3-carboxamide] and CCCn1nccc1C(=O)N[C@H](C(=O)Nc1ccc(-c2c(C)n[nH]c2C)cc1)C(C1CC1)C1CC1 [Example 133, N-[(1S)-1-(dicyclopropylmethyl)-2-[4-(3,5-dimethyl-1H-pyrazol-4-yl)anilino]-2-oxo-ethyl]-2-propyl-pyrazole-3-carboxamide] cannot be ordered by EC50: less than 100 nM for the first, less than 100 nM for the second.

Compared with CCC(CC)[C@H](NC(=O)c1ccnn1C)C(=O)Nc1ccc(-c2c(C)n[nH]c2C)cc1 [Example 118], Cc1n[nH]c(C)c1-c1ccc(NC(=O)[C@@H](NC(=O)c2ccnn2C)C2C[C@@H](C)C[C@@H](C)C2)cc1 (stereo partly drawn) [Example 146, N-[(1S)-1-[(3R,5S)-3,5-dimethylcyclohexyl]-2-[4-(3,5-dimethyl-1H-pyrazol-4-yl)anilino]-2-oxo-ethyl]-2-methyl-pyrazole-3-carboxamide] is lower in EC50: 100 to 1000 nM for the first, less than 100 nM for the second.

Compared with Cc1n[nH]c(C)c1-c1ccc(NC(=O)[C@@H](NC(=O)c2ccnn2C(C)CO)C(C2CC2)C2CC2)cc1 (stereo partly shown) [Example 120], CCC(C)n1nccc1C(=O)N[C@H](C(=O)Nc1ccc(-c2c(C)n[nH]c2C)cc1)C(C1CC1)C1CC1 (stereo partly drawn) [Example 128, N-[(1S)-1-(dicyclopropylmethyl)-2-[4-(3,5-dimethyl-1H-pyrazol-4-yl)anilino]-2-oxo-ethyl]-2-sec-butyl-pyrazole-3-carboxamide] is lower in EC50: 100 to 1000 nM for the first, less than 100 nM for the second.

Cc1n[nH]c(C)c1-c1ccc(NC(=O)[C@@H](NC(=O)c2ccnn2CCO)C(C2CCC2)C2CCC2)cc1 [Example 122] and Cc1n[nH]c(C)c1-c1ccc(NC(=O)[C@@H](NC(=O)c2ccnn2CCCO)C(C2CCC2)C2CCC2)cc1 [Example 166, N-[(1S)-1-[di(cyclobutyl)methyl]-2-[4-(3,5-dimethyl-1H-pyrazol-4-yl)anilino]-2-oxo-ethyl]-2-(3-hydroxypropyl)pyrazole-3-carboxamide] cannot be ordered by EC50: less than 100 nM for the first, less than 100 nM for the second.

Cc1n[nH]c(C)c1-c1ccc(NC(=O)[C@@H](NC(=O)c2ccnn2C)[C@H]2CC[C@H](C)CC2)cc1 [Example 125, Trans N-[(1S)-2-[4-(3,5-dimethyl-1H-pyrazol-4-yl)anilino]-1-(4-methylcyclohexyl)-2-oxo-ethyl]-2-methyl-pyrazole-3-carboxamide] and CCn1nccc1C(=O)N[C@H](C(=O)Nc1ccc(-c2c(C)n[nH]c2C)cc1)[C@H]1CC[C@H](C)CC1 [Example 126, Trans N-[(1S)-2-[4-(3,5-dimethyl-1H-pyrazol-4-yl)anilino]-1-(4-methylcyclohexyl)-2-oxo-ethyl]-2-ethyl-pyrazole-3-carboxamide] cannot be ordered by EC50: less than 100 nM for the first, less than 100 nM for the second.

Cc1n[nH]c(C)c1-c1ccc(NC(=O)[C@@H](NC(=O)c2ccnn2C(C)C)[C@H]2CC[C@H](C)CC2)cc1 [Example 127, Trans N-[(1S)-2-[4-(3,5-dimethyl-1H-pyrazol-4-yl)anilino]-1-(4-methylcyclohexyl)-2-oxo-ethyl]-2-isopropyl-pyrazole-3-carboxamide] and Cc1n[nH]c(C)c1-c1ccc(NC(=O)[C@@H](NC(=O)c2cnnn2C(C)C)[C@H]2CC[C@H](C)CC2)cc1 [Example 148, N-[(1S)-2-[4-(3,5-dimethyl-1H-pyrazol-4-yl)anilino]-1-(4-methylcyclohexyl)-2-.oxo-ethyl]-3-isopropyl-tnazole-4-carboxamide] cannot be ordered by EC50: less than 100 nM for the first, less than 100 nM for the second.

First: Cc1n[nH]c(C)c1-c1ccc(NC(=O)[C@@H](NC(=O)c2ccnn2CC2CC2)C(C2CC2)C2CC2)cc1 [Example 129, 2-(cyclopropylmethyl)-N-[(1S)-1-(dicyclopropylmethyl)-2-[4-(3,5-dimethyl-1H-pyrazol-4-yl)anilino]-2-oxo-ethyl]pyrazole-3-carboxamide]
Second: Cc1n[nH]c(C)c1-c1ccc(NC(=O)[C@@H](NC(=O)c2ccnn2CCN(C)C)C(C2CC2)C2CC2)cc1 [Example 131, N-[(1S)-1-(dicyclopropylmethyl)-2-[4-(3,5-dimethyl-1H-pyrazol-4-yl)anilino]-2-oxo-ethyl]-2-(2-dimethylaminoethyl) pyrazole-3-carboxamide]
The EC50 of the first is lower: less than 100 nM for the first, 100 to 1000 nM for the second. The first is the more potent here.

Cc1n[nH]c(C)c1-c1ccc(NC(=O)[C@@H](NC(=O)c2ccnn2CCC(F)(F)F)C(C2CC2)C2CC2)cc1 [Example 130, N-[(1S)-1-(dicyclopropylmethyl)-2-[4-(3,5-dimethyl-1H-pyrazol-4-yl)anilino]-2-oxo-ethyl]-2-(3,3,3-trifluoropropyl)pyrazole-3-carboxamide] and Cc1n[nH]c(C)c1-c1ccc(NC(=O)[C@@H](NC(=O)c2ccnn2CCS(C)(=O)=O)C(C2CC2)C2CC2)cc1 [Example 158, N-[(1S)-1-(dicyclopropylmethyl)-2-[4-(3,5-dimethyl-1H-pyrazol-4-yl)anilino]-2-oxo-ethyl]-2-(2-methylsulfonylethyl) pyrazole-3-carboxamide] cannot be ordered by EC50: less than 100 nM for the first, less than 100 nM for the second.

Cc1n[nH]c(C)c1-c1ccc(NC(=O)[C@@H](NC(=O)c2ccnn2[C@@H](C)CO)[C@@H]2C[C@H](C)C[C@H](C)C2)cc1 [Example 141, N-[(1S)-1-[(3R,55)-3,5-dimethylcyclohexyl]-2-[4-(3,5-dimethyl-1H-pyrazol-4-yl)anilino]-2-oxo-ethyl]-2-[(1S)-2-hydroxy-1-methyl-ethyl]pyrazole-3-carboxamide] and Cc1n[nH]c(C)c1-c1ccc(NC(=O)[C@@H](NC(=O)c2ccnn2C)C2C[C@@H](C)C[C@@H](C)C2)cc1 (stereo partly drawn) [Example 147, N-[(1S)-1-[(3R,5S)-3,5-dimethylcyclohexyl]-2-[4-(3,5-dimethyl-1H-pyrazol-4-yl)anilino]-2-oxo-ethyl]-2-methyl-pyrazole-3-carboxamide] cannot be ordered by EC50: less than 100 nM for the first, less than 100 nM for the second.

CCn1nncc1C(=O)N[C@H](C(=O)Nc1ccc(-c2c(C)n[nH]c2C)cc1)[C@H]1CC[C@H](C)CC1 [Example 149, N-[(1S)-2-[4-(3,5-dimethyl-1H-pyrazol-4-yl)anilino]-1-(4-methylcyclohexyl)-2-oxo-ethyl]-3-ethyl-triazole-4-carboxamide] and Cc1n[nH]c(C)c1-c1ccc(NC(=O)[C@@H](NC(=O)c2ncnn2C(C)C)C(C2CC2)C2CC2)cc1 [Example 162, N-[(1S)-1-(dicyclopropylmethyl)-2-[4-(3,5-dimethyl-1H-pyrazol-4-yl)anilino]-2-oxo-ethyl]-2-isopropyl-1,2,4-triazole-3-carboxamide] fall in the same range of EC50: 100 to 1000 nM for the first, 100 to 1000 nM for the second.

For Cc1n[nH]c(C)c1-c1ccc(NC(=O)[C@@H](NC(=O)c2ncnn2C)C(C2CC2)C2CC2)cc1 [Example 163, N-[(1S)-1-(dicyclopropylmethyl)-2-[4-(3,5-dimethyl-1H-pyrazol-4-yl)anilino]-2-oxo-ethyl]-2-methyl-1,2,4-triazole-3-carboxamide], the EC50 was greater than 1000 nM.

Reference: patent US11377425B1, “Small molecule modulators of IL-17” (LEO Pharma A/S, priority 2018, dated 2022)
